Consider six compounds from patent publication EP4603105A1, “PHARMACEUTICAL COMPOSITION CONTAINING CYCLIC COMPOUND HAVING SELECTIVE KRAS INHIBITORY EFFECT AGAINST HRAS AND NRAS” (CHUGAI SEIYAKU KABUSHIKI KAISHA, priority 2022, dated 2024).

For experiment [1], the target named is GDP-bound NRAS wild-type protein (Homo sapiens, UniProt P01111). In words: Binding to NRAS by surface plasmon resonance (SPR), KD and KD ratio to KRAS. The method in brief: (§1)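 Biotinylated GDP-bound RAS was captured at about 100–300 RU. Running buffer: HBS pH 7.4, 10 mM MgCl2, 10 µM GDP, 1 mM DTT, 0.01% Tween 20, 4% DMSO.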
Chain of GDP-bound NRAS wild-type protein (P01111 whole entry): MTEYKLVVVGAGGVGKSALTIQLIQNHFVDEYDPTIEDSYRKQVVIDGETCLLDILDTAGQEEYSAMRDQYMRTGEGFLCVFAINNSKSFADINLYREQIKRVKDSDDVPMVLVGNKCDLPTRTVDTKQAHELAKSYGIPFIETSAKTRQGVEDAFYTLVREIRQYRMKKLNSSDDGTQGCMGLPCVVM
Experiment [2] relates to human lung cancer strain NCI-H441. Format: cell-based. The method in brief: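 Step one: dispense the test compound in serial DMSO dilutions. Step three: add the reagent and measure […].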
Experiment [3] addresses GDP-bound KRAS wild-type protein (Homo sapiens, UniProt P01116). In words: Binding to KRAS by surface plasmon resonance (SPR), dissociation constant KD. Particulars: 1:1 binding model. The essentials: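 SPR, 30°C: Avi-biotin RAS·GDP captured via Biotin CAPture (~100–300 RU); running buffer HBS pH 7.4, 1 mM DTT, 10 mM MgCl2, 0.01% Tween 20, 10 µM GDP, 4% DMSO. Single-cycle kinetics, 100 µL/min, 75 s injections; 1:1 model → KD.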
For orientation: Surface plasmon resonance follows binding to a sensor surface in real time, without labels.

In a further experiment the target is HRAS wild-type protein (Homo sapiens, UniProt P01112). In words: Binding to HRAS by surface plasmon resonance (SPR), KD and KD ratio to KRAS. The essentials: as §1
Chain of HRAS wild-type protein (P01112 whole entry): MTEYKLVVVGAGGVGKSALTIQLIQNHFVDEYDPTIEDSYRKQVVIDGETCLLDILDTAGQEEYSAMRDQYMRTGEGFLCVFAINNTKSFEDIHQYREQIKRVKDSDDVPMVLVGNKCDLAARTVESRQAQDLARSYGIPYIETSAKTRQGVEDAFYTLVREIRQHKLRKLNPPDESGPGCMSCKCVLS
[4] abbreviates: ratio of the KD value with respect to GDP-bound NRAS wild-type protein to the KD value with respect to KRAS.
[5] abbreviates: ratio of the KD value with respect to HRAS wild-type protein to the KD value with respect to KRAS.
Setting [6] is: ratio of KD for GDP-bound NRAS wild-type protein to KD for KRAS.
[7] abbreviates: ratio of KD for HRAS wild-type protein to KD for KRAS.

Chain of GDP-bound KRAS wild-type protein (P01116 1-188 isoform P01116-2): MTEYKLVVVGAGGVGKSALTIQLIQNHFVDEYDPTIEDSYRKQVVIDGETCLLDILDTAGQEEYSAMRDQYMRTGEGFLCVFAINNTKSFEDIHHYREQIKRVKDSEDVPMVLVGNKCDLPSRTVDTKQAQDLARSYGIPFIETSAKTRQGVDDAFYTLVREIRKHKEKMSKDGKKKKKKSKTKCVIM

Turning to `CCOC[C@H]1C(=O)N[C@@H]([C@@H](C)CC)C(=O)N(C2CC2)CC(=O)N(C)[C@H]2C/C=C\CCN(C2=O)[C@@H](CC2CCCCC2)C(=O)N(C)CC(=O)N[C@@H](CCc2ccc(C(F)(F)F)c(OC)c2)C(=O)N2C[C@H](OCC)C[C@H]2C(=O)N(C)C2(CCC2)C(=O)N(C)[C@@H](C2CCCC2)C(=O)N(C)[C@H](C(=O)N(C)C)CC(=O)N1C` [PP2342], in experiment [1] (setting [4]), the “NRAS /KRAS” value was “A (a compound having 10 or more and less than 20 is denoted as A)”. Inhibition in experiment [2] was half-maximal at 70.3 nM (IC50). In addition, in experiment [3] (Single Cycle Kinetics), binding was characterised by a dissociation constant (Kd) of 0.55 nM. The “HRAS /KRAS” value on HRAS wild-type protein (setting [5]) is “A (a compound having 10 or more and less than 20 is denoted as A)”.
In the case of `CCOC[C@H]1C(=O)N[C@@H]([C@@H](C)CC)C(=O)N(C2CC2)CC(=O)N(C)[C@H]2C/C=C\CCN(C2=O)[C@@H](CC2CCC(F)(F)CC2)C(=O)N(C)CC(=O)N[C@@H](CCc2ccc(C(F)(F)F)c(OC)c2)C(=O)N2C[C@H](OCC)C[C@H]2C(=O)N(C)C2(CCC2)C(=O)N(C)[C@@H](C(CC)CC)C(=O)N(C)[C@H](C(=O)N(C)C)CC(=O)N1C` [PP2351], the “NRAS /KRAS” value in experiment [1] (setting [4]) is “A (a compound having 10 or more and less than 20 is denoted as A)”. Besides, in experiment [2], the IC50 (in general, the concentration that gives 50% inhibition) amounted to 177 nM. In experiment [3] (Single Cycle Kinetics), the Kd (as a rule, a measure of binding affinity in units of concentration) came out at 3.2 nM. Further, the “HRAS /KRAS” value at HRAS wild-type protein (setting [5]) was “A (a compound having 10 or more and less than 20 is denoted as A)”.
As to `CCCOC[C@H]1C(=O)N[C@@H]([C@@H](C)CC)C(=O)N(C2CC2)CC(=O)N(C)[C@H]2C/C=C\CCN(C2=O)[C@@H](CC2CCC(F)(F)CC2)C(=O)N(C)CC(=O)N[C@@H](CCc2ccc(C(F)(F)F)c(OC)c2)C(=O)N2C[C@H](OCC)C[C@H]2C(=O)N(C)C2(CCC2)C(=O)N(C)[C@@H](C2CCCC2)C(=O)N(C)[C@H](C(=O)N(C)C)CC(=O)N1C` [PP2354], in experiment [1] (setting [4]), the “NRAS /KRAS” value is “A (a compound having 10 or more and less than 20 is denoted as A)”. In experiment [2], this compound gave a 50% inhibitory concentration (IC50) of 9.3 nM. This compound gave a Kd in experiment [3] (Single Cycle Kinetics) of 0.79 nM. Besides, the “HRAS /KRAS” value at HRAS wild-type protein (setting [5]) is “A (a compound having 10 or more and less than 20 is denoted as A)”.
Turning to `CCO[C@@H]1C[C@H]2C(=O)NC3(CC(C)(C)C3)C(=O)N(C)[C@@H](C(CC)CC)C(=O)N(C)[C@H](C(=O)N(C)C)CC(=O)N(C)[C@H]3CC/C=C/c4ccc(cc4)C[C@@H](C(=O)N(C)CC(=O)N[C@@H](CCc4cc(F)c(C(F)(F)F)c(F)c4)C(=O)N2C1)N1CC/C=C\C[C@@H](C1=O)N(C)C(=O)CN(C)C(=O)[C@H]([C@@H](C)CC)NC3=O` [PP2586], in experiment [1] (setting [6]), the “NRAS /KRAS” value was “A (a compound having 10 or more and less than 20 is denoted as A)”. The IC50 in experiment [2] turned out to be 14.4 nM. In experiment [3], this compound returned a Kd of 0.17 nM. In addition, the “HRAS /KRAS” value at HRAS wild-type protein (setting [7]) was “B (a compound having 3 or more and less than 10 is denoted as B)”.
For the compound `CCO[C@@H]1C[C@H]2C(=O)NC3(CC(C)(C)C3)C(=O)N(C)[C@@H](C(CC)CC)C(=O)N(C)[C@H](C(=O)N(C)C)CC(=O)N(C)[C@H]3CC/C=C/c4ccc(cc4)C[C@@H](C(=O)N(C)CC(=O)N[C@@H](CCc4ccc(Cl)c(Cl)c4)C(=O)N2C1)N1CC/C=C\C[C@@H](C1=O)N(C)C(=O)CN(C)C(=O)[C@H]([C@@H](C)CC)NC3=O` [PP2589], the “NRAS /KRAS” value in experiment [1] (setting [6]) is “AA (a compound having 20 or more is denoted as AA)”. Moreover, in experiment [2], half-maximal inhibition (IC50) was put at 74.1 nM. The compound further came in with a Kd in experiment [3] of 0.45 nM. Moreover, the “HRAS /KRAS” value on HRAS wild-type protein (setting [7]) was “A (a compound having 10 or more and less than 20 is denoted as A)”.
With `CCO[C@@H]1C[C@H]2C(=O)NC3(CC(C)(C)C3)C(=O)N(C)[C@@H](C3CCCC3)C(=O)N(C)[C@H](C(=O)N(C)CC)CC(=O)N(C)[C@H]3CC/C=C/c4ccc(cc4)C[C@@H](C(=O)N(C)CC(=O)N[C@@H](CCc4ccc(Cl)c(Cl)c4)C(=O)N2C1)N1CC/C=C\C[C@@H](C1=O)N(C)C(=O)CN(C1CC1)C(=O)[C@H]([C@@H](C)CC)NC3=O` [PP2598], the “NRAS /KRAS” value in experiment [1] (setting [6]) is “A (a compound having 10 or more and less than 20 is denoted as A)”. Further, in experiment [2], the 50% inhibitory concentration (IC50) is 23 nM. Also, binding in experiment [3] was characterised by a dissociation constant (Kd) of 1.9 nM. Also, the “HRAS /KRAS” value on HRAS wild-type protein (setting [7]) was “A (a compound having 10 or more and less than 20 is denoted as A)”.
